Our source for the IC50 values is patent US20260217719A1, “CDK2 INHIBITORS” (BLUEPRINT MEDICINES CORPORATION, priority 2023, published 2026).

In one test the target is T1, CDK2/Cyclin E (Homo sapiens, UniProt P24941).
T1 construct: purchased Eurofins 14-475
As to the kind of experiment: Enzymatic phosphorylation activity assay (Caliper mobility shift), CDK2/Cyclin E. In kind it is biochemical. How it is done:
(§1) Inhibitory effects of the compounds of the disclosure were measured in biochemical assays that measure the enzymatic phosphorylation activity of CDK enzyme in complex of Cyclin proteins phosphorylates 7.5 micromolar fluorescently labelled peptide substrate, 5-FAM-QSPKKG-CONH2, (FL-Peptide 18, Perkin Elmer, 760362) in the presence of adenosine-5′-triphosphate (ATP) and varying concentrations of the test compound in 100 mM 2-[4-(2-hydroxyethyl)piperazin-1-yl] ethanesulfonic acid (HEPES), pH 7.5, 10 mM MgCl2, 0.015% Brij-35, 1 mM dithiothreitol (DTT), 1.0% dimehylsulfoxide (DMSO). […] Reactions proceeded until between 10% to 20% total peptides were phosphorylated at room temperature (25° C.) and were terminated with 35 mM 2,2′,2″,2″-(ethane-1,2-diyldinitrilo)tetraacetic acid (EDTA). Product was detected using the Caliper mobility shift detection method where the phosphorylated peptide (product) and substrate were electrophoretically separated and measured. Percent activity was plotted against log concentration of compound and points to generate an apparent IC50. The following CDK enzymes in complex with different cyclin proteins were used in these assays: • CDK1/Cyclin B1, GST-tag (BPS, 40454), 1.5 nM used in the assay • CDK2/Cyclin E (Eurofins, 14-475), 1.25 nM used in the assays

A further test has as its target T2, CDK1/Cyclin B1, GST-tag (Homo sapiens, UniProt P06493).
T2 construct: GST; purchased BPS 40454
The test can be described thus: Enzymatic phosphorylation activity assay (Caliper mobility shift), CDK1/Cyclin B1. The class given is biochemical. How it is done: as §1

The mark [1] stands for this setting: read-out: Enzyme CDK2/cyclin E IC50.
[2] abbreviates: read-out: Enzyme CDK1/cyclin B1 IC50.

pIC50: −log10 of the molar value. Where two headings read alike, the source gives them in different places.

T2 sequence (P06493 whole entry): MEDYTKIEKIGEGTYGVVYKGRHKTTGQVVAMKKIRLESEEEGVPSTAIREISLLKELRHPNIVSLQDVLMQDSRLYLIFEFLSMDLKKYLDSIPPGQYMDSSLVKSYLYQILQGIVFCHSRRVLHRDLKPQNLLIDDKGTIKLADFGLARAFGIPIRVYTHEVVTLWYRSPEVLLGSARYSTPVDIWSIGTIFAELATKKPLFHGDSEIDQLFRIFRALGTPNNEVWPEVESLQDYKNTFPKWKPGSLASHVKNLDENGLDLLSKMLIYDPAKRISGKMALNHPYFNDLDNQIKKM
T2 sequence (P14635 whole entry partner): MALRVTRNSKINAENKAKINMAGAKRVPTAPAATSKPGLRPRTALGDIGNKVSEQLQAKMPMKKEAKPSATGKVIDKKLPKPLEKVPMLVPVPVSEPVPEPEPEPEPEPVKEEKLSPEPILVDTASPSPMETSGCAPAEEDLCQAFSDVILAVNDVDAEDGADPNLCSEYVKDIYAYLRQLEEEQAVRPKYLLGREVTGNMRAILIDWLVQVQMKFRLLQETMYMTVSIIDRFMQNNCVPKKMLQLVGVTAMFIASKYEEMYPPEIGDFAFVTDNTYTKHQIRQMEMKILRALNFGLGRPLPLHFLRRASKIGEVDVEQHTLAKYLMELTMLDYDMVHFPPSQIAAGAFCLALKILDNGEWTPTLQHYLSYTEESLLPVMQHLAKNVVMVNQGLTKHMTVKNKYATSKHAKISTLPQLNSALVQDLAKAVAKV

As to `CC(C)c1cc(Nc2cnc3ccn([C@@H](C)c4cccnc4)c3n2)n[nH]1` [Example 3, (S)—N-(5-isopropyl-1H-pyrazol-3-yl)-5-(1-(pyridin-3-yl)ethyl)-5H-pyrrolo[2,3-b]pyrazin-3-amine], the pIC50 was 10.52 at CDK2/Cyclin E (setting [1]) and 7.40 at CDK1/Cyclin B1, GST-tag (setting [2]).
For the compound `CC(C)c1cc(Nc2cnc3ccn([C@H](C)c4cccnc4)c3n2)n[nH]1` [Example 4, (R)—N-(5-isopropyl-1H-pyrazol-3-yl)-5-(1-(pyridin-3-yl)ethyl)-5H-pyrrolo[2,3-b]pyrazin-3-amine], the pIC50 at CDK2/Cyclin E (setting [1]) is 9.51; at CDK1/Cyclin B1, GST-tag (setting [2]), 7.27.
For `C[C@@H](c1cccnc1)n1ccc2ncc(Nc3cc(OC(F)F)[nH]n3)nc21` [Example 5, (S)—N-(5-(difluoromethoxy)-1H-pyrazol-3-yl)-5-(1-(pyridin-3-yl)ethyl)-5H-pyrrolo[2,3-b]pyrazin-3-amine], the pIC50 at CDK2/Cyclin E (setting [1]) is 9.66; at CDK1/Cyclin B1, GST-tag (setting [2]), 6.65.
As for “(S)-7-chloro-N-(5-isopropyl-1H-pyrazol-3-yl)-5-(1-(pyridin-3-yl)ethyl)-5H-pyrrolo[2,3-b]pyrazin-3-amine [Example 6]”, the pIC50 at CDK2/Cyclin E (apparent IC50, 1.25 nM enzyme, 7.5 micromolar FL-Peptide 18, 1.0 mM ATP or ATP Km, 25° C.) was 8.65; at CDK1/Cyclin B1, GST-tag (apparent IC50, 1.5 nM enzyme, 7.5 micromolar FL-Peptide 18, 1.0 mM ATP or ATP Km, 25° C.), 6.06.
